According to ChEMBL document CHEMBL1201862, “PubChem BioAssay data set” (2004):
One block for each compound: values may come before it. The source made the active and inactive calls.

What was measured:
Escherichia coli = assay: microbe, parasite or virus in culture
Phospholipase D1 = Phospholipase D1 (Homo sapiens, UniProt Q13393); assay: PLD1 inhibitor potency in cells, dose response (AID 602151); type: functional;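 further: cellular PLD1 assay in Calu-1 cells stimulated with PMA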
Phospholipase D2 = Phospholipase D2 (Homo sapiens, UniProt O14939); assay: PLD2 inhibitor potency in cells, dose response (AID 602147); type: functional;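 further: cellular assay in HEK293 cells overexpressing GFP-tagged PLD2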
Phospholipase D2, sequence (O14939 whole entry, the tested form may be a part): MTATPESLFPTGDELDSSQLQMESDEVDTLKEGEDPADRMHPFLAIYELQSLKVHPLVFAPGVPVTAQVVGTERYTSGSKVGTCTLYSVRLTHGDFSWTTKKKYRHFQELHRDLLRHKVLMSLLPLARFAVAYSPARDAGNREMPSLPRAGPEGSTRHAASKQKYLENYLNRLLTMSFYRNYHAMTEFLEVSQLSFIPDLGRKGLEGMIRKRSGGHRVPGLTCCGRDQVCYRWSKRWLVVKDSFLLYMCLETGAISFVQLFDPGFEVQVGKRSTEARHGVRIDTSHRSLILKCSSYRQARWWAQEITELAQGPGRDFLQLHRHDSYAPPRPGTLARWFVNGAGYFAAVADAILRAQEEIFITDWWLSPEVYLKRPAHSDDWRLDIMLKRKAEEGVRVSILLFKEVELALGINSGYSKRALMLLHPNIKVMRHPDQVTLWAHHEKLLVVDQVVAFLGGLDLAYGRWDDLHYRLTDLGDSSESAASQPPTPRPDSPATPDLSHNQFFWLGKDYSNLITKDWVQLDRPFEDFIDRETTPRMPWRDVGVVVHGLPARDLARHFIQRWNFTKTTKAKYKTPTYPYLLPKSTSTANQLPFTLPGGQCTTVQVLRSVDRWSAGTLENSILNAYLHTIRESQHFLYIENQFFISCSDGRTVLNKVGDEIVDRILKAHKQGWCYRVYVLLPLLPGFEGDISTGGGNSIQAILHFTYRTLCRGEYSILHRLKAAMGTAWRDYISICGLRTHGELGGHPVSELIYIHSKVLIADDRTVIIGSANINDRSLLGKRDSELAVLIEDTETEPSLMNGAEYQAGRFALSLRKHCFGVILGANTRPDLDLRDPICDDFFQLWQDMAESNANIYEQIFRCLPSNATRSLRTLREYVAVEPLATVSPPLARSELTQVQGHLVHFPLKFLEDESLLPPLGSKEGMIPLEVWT

Hexokinase-1 = Hexokinase-1 (Homo sapiens, UniProt P19367); assay: SAR analysis of small molecule inhibitors of hexokinase domain containing I (HKDC1) in the hexokinase 1 selectivity assay. [Related pubchem assays (depositor defined):AID493160, AID493190]; type: functional
Hexokinase-1, sequence (P19367 whole entry, the tested form may be a part): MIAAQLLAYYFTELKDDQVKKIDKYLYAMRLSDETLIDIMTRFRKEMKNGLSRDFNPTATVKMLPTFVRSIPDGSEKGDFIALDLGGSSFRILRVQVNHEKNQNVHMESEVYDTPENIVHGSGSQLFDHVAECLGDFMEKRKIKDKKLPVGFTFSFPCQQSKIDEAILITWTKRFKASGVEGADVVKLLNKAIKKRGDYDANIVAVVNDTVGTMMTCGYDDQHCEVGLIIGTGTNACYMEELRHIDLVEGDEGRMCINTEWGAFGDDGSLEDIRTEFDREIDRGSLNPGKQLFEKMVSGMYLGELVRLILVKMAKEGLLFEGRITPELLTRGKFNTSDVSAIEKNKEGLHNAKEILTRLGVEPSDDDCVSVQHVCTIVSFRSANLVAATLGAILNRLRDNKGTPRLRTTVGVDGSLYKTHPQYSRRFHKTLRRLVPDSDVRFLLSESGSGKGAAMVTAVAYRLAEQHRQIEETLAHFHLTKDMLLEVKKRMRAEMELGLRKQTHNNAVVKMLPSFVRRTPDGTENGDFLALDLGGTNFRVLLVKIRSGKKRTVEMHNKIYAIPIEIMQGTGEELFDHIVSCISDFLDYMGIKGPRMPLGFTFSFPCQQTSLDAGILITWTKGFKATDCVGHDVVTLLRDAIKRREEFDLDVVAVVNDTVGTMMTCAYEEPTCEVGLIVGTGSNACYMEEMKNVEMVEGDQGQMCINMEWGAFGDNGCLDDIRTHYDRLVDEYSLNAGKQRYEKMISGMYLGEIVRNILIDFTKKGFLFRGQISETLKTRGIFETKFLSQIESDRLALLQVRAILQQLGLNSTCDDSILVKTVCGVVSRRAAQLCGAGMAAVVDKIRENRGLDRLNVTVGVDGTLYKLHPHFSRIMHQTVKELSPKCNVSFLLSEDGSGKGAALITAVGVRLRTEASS

Hexokinase HKDC1 = biological target: T1, Hexokinase HKDC1 (Homo sapiens, UniProt Q2TB90); assay: SAR analysis of small molecule inhibitors of hexokinase domain containing I (HKDC1). [Related pubchem assays (depositor defined):AID493160, AID493190]; type: functional
T1 sequence (Q2TB90 whole entry): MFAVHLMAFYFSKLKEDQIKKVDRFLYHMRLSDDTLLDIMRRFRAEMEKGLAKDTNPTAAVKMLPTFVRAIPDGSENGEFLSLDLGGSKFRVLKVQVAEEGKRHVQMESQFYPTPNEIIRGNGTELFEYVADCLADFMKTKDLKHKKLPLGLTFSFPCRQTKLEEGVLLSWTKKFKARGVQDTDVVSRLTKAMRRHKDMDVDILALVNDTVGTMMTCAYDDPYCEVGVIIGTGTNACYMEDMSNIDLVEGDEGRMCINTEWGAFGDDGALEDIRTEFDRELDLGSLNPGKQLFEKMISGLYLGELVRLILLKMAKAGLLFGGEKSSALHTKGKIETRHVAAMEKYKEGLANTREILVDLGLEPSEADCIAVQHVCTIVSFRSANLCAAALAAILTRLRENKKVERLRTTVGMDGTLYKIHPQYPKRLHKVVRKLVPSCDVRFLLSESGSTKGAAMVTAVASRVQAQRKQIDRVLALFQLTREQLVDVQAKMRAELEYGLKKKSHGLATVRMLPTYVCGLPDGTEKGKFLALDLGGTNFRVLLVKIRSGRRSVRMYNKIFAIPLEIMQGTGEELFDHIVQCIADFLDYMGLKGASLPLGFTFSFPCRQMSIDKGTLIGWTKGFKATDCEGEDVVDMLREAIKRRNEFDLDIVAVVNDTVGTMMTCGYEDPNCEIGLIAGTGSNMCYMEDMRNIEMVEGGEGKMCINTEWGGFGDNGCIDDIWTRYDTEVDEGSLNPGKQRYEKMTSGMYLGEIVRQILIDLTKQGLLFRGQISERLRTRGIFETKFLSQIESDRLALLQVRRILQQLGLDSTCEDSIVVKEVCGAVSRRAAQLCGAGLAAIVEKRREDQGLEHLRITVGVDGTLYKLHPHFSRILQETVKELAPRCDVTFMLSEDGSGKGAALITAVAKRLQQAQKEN

[1] = biological target: Short transient receptor potential channel 6 (Mus musculus, UniProt Q61143); assay: TRPC6 inhibition potency of TRPC4 inhibitor analogs, dose response, selectivity assay for selective TRPC4 inhibitor project, HEK293 cells, membrane potential dye, IC50 (AID 492987); type: functional, cell-based
Short transient receptor potential channel 6, sequence (Q61143 whole entry): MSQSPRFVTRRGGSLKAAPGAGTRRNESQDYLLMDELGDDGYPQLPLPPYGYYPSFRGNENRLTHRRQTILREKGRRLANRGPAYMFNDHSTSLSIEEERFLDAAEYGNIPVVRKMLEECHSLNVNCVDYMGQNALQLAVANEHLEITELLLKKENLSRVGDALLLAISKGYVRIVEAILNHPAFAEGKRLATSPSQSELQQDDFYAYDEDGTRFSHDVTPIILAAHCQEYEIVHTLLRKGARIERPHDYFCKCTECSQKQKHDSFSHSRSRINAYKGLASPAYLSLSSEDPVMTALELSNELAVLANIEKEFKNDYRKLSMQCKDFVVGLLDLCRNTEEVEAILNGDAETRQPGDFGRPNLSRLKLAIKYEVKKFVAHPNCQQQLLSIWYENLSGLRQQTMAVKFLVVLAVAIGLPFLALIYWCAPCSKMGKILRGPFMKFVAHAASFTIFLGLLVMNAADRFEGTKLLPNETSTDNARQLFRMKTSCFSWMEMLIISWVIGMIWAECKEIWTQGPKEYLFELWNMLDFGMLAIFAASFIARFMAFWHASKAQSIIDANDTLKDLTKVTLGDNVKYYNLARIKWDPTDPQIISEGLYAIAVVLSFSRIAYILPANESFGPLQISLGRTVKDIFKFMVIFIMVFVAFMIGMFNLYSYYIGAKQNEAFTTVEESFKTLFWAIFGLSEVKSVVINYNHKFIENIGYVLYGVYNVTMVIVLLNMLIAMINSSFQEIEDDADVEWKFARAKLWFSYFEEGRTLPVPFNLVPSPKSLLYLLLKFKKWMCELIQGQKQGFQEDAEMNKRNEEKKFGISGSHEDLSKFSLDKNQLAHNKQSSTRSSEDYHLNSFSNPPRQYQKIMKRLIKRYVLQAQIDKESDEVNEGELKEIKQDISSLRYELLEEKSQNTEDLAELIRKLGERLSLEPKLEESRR

[2] = biological target: T2, Short transient receptor potential channel 4 (Mus musculus, UniProt Q9QUQ5); assay: TRPC4 inhibitor concentration-response, dose response, cell-based, HEK293 TRPC4/mu-opioid, DAMGO stimulus, Fluo-4 (AID 492994); type: functional
T2 sequence (Q9QUQ5 whole entry): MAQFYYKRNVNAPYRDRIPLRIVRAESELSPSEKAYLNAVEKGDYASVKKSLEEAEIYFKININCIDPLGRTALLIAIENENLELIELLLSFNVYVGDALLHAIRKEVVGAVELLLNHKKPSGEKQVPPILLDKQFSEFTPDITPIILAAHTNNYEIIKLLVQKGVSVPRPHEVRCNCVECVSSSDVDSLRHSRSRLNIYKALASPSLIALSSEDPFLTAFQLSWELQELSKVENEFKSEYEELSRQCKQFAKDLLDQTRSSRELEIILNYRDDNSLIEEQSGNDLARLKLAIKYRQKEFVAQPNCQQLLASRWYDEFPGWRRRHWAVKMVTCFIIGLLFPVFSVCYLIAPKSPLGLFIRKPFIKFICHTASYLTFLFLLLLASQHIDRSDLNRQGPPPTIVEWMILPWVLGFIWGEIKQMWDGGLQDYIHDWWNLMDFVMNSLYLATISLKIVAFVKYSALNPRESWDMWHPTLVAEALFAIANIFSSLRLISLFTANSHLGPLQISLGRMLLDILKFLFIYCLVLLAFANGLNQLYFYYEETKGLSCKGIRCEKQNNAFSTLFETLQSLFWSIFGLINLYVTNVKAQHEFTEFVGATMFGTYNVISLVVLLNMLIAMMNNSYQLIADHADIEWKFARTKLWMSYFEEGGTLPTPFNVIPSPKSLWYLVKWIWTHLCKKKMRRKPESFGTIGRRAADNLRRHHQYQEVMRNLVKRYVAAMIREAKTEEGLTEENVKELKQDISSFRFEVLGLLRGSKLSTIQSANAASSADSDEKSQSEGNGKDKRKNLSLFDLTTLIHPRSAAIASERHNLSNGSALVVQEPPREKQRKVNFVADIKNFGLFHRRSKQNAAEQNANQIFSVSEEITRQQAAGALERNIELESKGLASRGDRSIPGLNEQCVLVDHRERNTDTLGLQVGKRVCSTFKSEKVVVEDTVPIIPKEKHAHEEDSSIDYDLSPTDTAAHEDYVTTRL

Caspase-3 = biological target: T3, Caspase-3 (Homo sapiens, UniProt P42574); type: functional;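 further: Dose-response selectivity test against caspase-3 for candidate inhibitors of sentrin-specific proteases (SENPs)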
T3 sequence (P42574 whole entry): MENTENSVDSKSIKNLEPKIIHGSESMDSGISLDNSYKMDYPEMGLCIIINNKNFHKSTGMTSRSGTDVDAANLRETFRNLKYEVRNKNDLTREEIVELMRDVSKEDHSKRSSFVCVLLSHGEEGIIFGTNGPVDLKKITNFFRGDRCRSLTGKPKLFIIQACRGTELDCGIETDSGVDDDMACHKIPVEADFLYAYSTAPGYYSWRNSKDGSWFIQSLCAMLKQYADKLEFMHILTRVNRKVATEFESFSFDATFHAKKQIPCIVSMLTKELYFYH

[3] = biological target: T4, Sentrin-specific protease 7 (Homo sapiens, UniProt Q9BQF6); type: functional;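 further: Luminescence-based dose-response confirmation of ultra-high-throughput screening hits, measuring inhibition of SENP7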
T4 sequence (Q9BQF6 whole entry): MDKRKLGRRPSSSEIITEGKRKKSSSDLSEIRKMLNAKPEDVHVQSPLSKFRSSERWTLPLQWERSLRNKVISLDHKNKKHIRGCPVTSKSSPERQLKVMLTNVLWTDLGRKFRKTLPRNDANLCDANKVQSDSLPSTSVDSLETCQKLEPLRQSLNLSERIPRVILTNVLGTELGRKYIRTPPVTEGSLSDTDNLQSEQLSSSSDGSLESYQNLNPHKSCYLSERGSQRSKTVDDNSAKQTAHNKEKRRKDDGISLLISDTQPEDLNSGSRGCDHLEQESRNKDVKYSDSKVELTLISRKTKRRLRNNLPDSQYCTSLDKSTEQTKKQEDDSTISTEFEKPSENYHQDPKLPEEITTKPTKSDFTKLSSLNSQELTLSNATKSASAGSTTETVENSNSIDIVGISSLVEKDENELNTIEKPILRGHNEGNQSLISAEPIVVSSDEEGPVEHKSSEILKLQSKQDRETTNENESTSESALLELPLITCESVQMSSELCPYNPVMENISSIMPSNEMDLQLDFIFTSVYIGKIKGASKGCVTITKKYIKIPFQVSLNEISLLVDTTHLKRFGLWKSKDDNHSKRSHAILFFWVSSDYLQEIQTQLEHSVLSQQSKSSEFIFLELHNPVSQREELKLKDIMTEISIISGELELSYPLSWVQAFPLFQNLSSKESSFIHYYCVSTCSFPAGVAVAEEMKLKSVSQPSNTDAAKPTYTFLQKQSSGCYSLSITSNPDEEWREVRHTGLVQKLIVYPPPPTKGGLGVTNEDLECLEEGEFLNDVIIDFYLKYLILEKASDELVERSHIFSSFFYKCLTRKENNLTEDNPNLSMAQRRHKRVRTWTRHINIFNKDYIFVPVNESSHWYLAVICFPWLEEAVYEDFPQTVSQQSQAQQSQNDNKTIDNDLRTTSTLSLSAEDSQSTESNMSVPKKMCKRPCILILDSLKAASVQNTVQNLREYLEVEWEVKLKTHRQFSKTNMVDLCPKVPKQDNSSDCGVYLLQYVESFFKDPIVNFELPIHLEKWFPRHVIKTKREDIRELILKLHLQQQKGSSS

[4] = biological target: T5, Sentrin-specific protease 6 (Homo sapiens, UniProt Q9GZR1); type: functional;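 further: Luminescence-based dose-response confirmatory assay of SENP6 inhibition, following up an ultra-high-throughput screen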
T5 sequence (Q9GZR1 whole entry): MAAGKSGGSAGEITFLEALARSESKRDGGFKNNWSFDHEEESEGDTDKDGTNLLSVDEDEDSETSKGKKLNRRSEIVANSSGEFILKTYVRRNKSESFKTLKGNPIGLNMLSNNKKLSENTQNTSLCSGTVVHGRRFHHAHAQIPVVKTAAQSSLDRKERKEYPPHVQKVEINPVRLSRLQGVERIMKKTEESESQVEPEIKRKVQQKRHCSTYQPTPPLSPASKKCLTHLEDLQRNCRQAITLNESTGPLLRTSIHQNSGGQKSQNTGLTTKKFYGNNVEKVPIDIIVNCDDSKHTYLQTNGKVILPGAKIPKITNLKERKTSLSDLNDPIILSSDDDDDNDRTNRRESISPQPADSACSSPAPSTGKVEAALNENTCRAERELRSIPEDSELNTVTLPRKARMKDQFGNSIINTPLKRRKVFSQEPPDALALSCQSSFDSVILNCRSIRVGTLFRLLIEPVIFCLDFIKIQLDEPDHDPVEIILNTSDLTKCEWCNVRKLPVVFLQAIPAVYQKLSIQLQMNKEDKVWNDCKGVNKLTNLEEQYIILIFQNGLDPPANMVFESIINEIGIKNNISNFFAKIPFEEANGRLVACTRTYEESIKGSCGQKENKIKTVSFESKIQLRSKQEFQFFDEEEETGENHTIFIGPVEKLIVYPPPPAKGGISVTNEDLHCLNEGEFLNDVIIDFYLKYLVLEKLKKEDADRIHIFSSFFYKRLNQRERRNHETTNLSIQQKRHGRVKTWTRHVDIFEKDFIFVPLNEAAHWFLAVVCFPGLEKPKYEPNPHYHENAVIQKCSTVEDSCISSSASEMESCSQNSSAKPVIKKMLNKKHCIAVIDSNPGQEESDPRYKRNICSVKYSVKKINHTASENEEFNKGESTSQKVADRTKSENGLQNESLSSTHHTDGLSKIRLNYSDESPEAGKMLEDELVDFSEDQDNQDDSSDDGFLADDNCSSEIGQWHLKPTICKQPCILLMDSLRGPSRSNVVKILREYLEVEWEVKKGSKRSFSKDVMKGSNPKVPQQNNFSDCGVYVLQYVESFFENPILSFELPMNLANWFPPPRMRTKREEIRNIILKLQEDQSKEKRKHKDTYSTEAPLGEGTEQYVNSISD

[5] = biological target: T6, Sentrin-specific protease 8 (Homo sapiens, UniProt Q96LD8); type: functional;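 further: luminescence read-out of SENP8 inhibition, dose-response confirmation following an ultra-high-throughput screen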
T6 sequence (Q96LD8 whole entry): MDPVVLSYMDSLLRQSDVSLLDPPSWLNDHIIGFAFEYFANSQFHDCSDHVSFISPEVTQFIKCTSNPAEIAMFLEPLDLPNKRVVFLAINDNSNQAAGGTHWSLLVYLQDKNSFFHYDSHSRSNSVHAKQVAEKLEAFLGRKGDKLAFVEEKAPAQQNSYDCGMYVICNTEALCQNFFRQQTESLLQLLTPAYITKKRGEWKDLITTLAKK

HEK293 [6] = assay: cells; conditions: Homo sapiens
HEK293 [7] = assay: cells; conditions: Homo sapiens; remark: listed apart in the source
[8] = biological target: T7, G-protein coupled receptor 35 (Homo sapiens, UniProt Q9HC97); assay: GPR35 antagonists blocking zaprinast-driven arrestin recruitment, primary screen, imaging, U2OS, beta-arrestin-GFP, zaprinast agonist (AID 2058); type: functional;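 further: antagonist potency meaning inhibition of agonist-induced arrestin redistribution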
T7 sequence (Q9HC97 whole entry): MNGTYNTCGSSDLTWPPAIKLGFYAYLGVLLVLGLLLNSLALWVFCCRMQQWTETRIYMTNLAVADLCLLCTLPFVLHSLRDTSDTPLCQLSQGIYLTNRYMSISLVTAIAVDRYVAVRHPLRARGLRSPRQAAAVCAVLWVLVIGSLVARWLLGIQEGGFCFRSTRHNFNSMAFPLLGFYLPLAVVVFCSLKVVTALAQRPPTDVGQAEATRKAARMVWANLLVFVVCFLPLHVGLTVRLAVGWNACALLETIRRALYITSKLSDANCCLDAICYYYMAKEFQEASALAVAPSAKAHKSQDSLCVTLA

[9] = biological target: T7, G-protein coupled receptor 35; assay: SAR Analysis for the identification of Selective Antagonists of ERK1/2 Activity in GPR35-Overexpressing U2OS Cells. [Related pubchem assays: 2079, 2058 ]; type: functional, cell-based
[10] = biological target: G-protein coupled receptor 55 (Homo sapiens, UniProt Q9Y2T6); assay: GPR55 antagonists, SAR follow-up, counter-screen for GPR35 antagonist project, imaging, image-based (AID 2397); type: functional
G-protein coupled receptor 55, sequence (Q9Y2T6 whole entry): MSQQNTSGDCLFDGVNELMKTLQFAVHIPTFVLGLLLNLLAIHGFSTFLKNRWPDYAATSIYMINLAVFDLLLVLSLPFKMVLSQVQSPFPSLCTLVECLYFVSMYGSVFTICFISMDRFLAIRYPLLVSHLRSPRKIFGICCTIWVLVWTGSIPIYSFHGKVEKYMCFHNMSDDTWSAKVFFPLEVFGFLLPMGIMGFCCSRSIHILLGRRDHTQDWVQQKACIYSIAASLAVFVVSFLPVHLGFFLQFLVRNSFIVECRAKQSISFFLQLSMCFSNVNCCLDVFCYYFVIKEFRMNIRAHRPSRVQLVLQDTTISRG

[11] = biological target: Beta-2 adrenergic receptor (Homo sapiens, UniProt P07550); assay: beta2AR agonists driving receptor internalization, dose response, cell-based, FAP fluorogen, flow cytometry, cherry pick 1 (AID 588763); type: functional
Beta-2 adrenergic receptor, sequence (P07550 whole entry): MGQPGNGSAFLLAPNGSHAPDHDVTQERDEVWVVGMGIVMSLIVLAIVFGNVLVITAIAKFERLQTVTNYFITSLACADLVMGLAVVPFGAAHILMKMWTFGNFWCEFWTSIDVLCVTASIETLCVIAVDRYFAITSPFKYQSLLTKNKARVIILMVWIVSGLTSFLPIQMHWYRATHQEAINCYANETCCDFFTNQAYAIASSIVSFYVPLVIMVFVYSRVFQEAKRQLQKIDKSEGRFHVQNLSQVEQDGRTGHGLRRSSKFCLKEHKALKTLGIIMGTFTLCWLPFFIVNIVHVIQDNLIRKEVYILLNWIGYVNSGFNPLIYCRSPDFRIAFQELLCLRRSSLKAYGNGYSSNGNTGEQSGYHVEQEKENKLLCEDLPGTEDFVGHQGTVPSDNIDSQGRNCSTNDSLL

Phospholipase D1, sequence (Q13393 whole entry): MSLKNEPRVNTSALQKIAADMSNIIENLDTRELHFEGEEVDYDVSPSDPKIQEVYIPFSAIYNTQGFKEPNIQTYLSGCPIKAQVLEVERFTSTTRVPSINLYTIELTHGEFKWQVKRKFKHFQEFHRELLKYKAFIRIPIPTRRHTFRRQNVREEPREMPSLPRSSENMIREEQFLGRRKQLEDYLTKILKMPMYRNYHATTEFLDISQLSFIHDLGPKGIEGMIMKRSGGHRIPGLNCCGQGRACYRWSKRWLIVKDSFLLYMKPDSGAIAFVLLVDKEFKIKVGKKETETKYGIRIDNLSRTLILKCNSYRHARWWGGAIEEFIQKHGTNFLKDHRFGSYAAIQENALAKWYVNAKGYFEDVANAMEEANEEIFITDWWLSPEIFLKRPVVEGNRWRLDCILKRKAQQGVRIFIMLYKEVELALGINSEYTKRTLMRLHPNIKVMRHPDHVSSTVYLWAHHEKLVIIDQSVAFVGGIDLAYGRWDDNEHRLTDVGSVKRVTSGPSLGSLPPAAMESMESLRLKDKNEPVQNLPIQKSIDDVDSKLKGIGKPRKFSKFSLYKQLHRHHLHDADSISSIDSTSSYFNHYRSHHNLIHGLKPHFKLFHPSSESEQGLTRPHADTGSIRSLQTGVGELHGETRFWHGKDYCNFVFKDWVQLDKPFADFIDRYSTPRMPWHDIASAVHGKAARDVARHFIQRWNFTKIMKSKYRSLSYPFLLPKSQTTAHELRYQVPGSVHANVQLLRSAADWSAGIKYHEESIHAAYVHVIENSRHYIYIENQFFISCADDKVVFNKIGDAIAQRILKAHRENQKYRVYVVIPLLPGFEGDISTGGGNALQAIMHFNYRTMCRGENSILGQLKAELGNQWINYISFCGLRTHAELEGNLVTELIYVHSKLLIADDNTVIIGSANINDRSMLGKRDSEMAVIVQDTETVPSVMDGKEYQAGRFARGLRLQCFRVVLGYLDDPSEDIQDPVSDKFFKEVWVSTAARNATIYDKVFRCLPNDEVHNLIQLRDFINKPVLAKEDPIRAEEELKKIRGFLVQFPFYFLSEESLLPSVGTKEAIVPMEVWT

Compound: CCOC(=O)c1cc(C)sc1NC(=O)C(c1ccccc1)c1ccccc1
AC50 (Escherichia coli): 123 µM (active)

Compound: O=C(NCCN1CCC2(CC1)C(=O)NCN2c1cccc(F)c1)c1ccc(F)nc1
IC50 (Phospholipase D1): 17 µM (active) | IC50 (Phospholipase D2): 0.385 µM (active)

Compound: COc1cc(C#Cc2ccc3cc(CCCO)oc(=O)c3c2)cc(OC)c1
IC50 (Caspase-3): 21 µM (active) | IC50 [3]: 2.81 µM (active) | IC50 [4]: 7.16 µM (active) | IC50 [5]: 10.6 µM (active) | EC50 (HEK293 [6]): > 59.6 µM (inactive) | EC50 (HEK293 [7]): > 59.6 µM (inactive)

Other lines, results leading:

IC50 (Hexokinase-1): > 80 µM (inactive) | IC50 (Hexokinase HKDC1): > 80 µM (inactive)
Compound: O=c1c2ccccc2nc(/C=C/c2cccc(Br)c2)n1Cc1ccccc1

IC50 [1]: 16.9 µM (active) | IC50 [2]: 31.9 µM (active)
Compound: Cc1cc(N2CCC(N3CCOCC3)CC2)nc2ccccc12

IC50 [8]: 0.768 µM (active) | IC50 [9]: 16.5 µM (not active) | IC50 [10]: > 32 µM (inactive) | EC50 [11]: 1.74 µM (active)
Compound: O=C(Nc1ccc2nc(SCc3ccc(Cl)cc3)sc2c1)c1ccccc1C(=O)N1CCOCC1
